Tests used:
[1] = test system: A-431; assay: Antiproliferative activity against A431 cells at 1 uM by MTT assay after 72 hrs; type: functional; conditions: Homo sapiens, A-431, 72 h
[2] = Antiproliferative activity against Bcap37 cells at 1 uM by MTT assay after 72 hrs; type: functional, Homo sapiens
[3] = test system: PC-3; assay: Antiproliferative activity against PC3 cells at 10 uM by MTT assay after 72 hrs; type: functional; conditions: Homo sapiens, PC-3, 72 h
[4] = test system: A-375; assay: Antiproliferative activity against A375 cells at 5 uM by MTT assay after 72 hrs; type: functional; conditions: Homo sapiens, A-375, 72 h
[5] = test system: PC-3; assay: Antiproliferative activity against PC3 cells at 1 uM by MTT assay after 72 hrs; type: functional; conditions: Homo sapiens, PC-3, 72 h
[6] = test system: A-431; assay: Antiproliferative activity against A431 cells at 10 uM by MTT assay after 72 hrs; type: functional; conditions: Homo sapiens, A-431, 72 h
[7] = Antiproliferative activity against Bcap37 cells at 5 uM by MTT assay after 72 hrs; type: functional, Homo sapiens
[8] = Antiproliferative activity against Bcap37 cells at 10 uM by MTT assay after 72 hrs; type: functional, Homo sapiens
[9] = test system: A-375; assay: Antiproliferative activity against A375 cells at 1 uM by MTT assay after 72 hrs; type: functional; conditions: Homo sapiens, A-375, 72 h
[10] = test system: PC-3; assay: Antiproliferative activity against PC3 cells at 5 uM by MTT assay after 72 hrs; type: functional; conditions: Homo sapiens, PC-3, 72 h
[11] = test system: A-431; assay: Antiproliferative activity against A431 cells at 5 uM by MTT assay after 72 hrs; type: functional; conditions: Homo sapiens, A-431, 72 h
[12] = test system: A-375; assay: Antiproliferative activity against A375 cells at 10 uM by MTT assay after 72 hrs; type: functional; conditions: Homo sapiens, A-375, 72 h

Structure (SMILES) | inhibition at 1 µM [1] [%] | inhibition at 1 µM [2] [%] | inhibition at 10 µM [3] [%] | inhibition at 5 µM [4] [%] | inhibition at 1 µM [5] [%] | inhibition at 10 µM [6] [%] | inhibition at 5 µM [7] [%] | inhibition at 10 µM [8] [%] | inhibition at 1 µM [9] [%] | inhibition at 5 µM [10] [%] | inhibition at 5 µM [11] [%] | inhibition at 10 µM [12] [%]
CCOP(=O)(OCC)C(Nc1nc2ccc(OC)cc2s1)c1ccc(F)cc1 (stereo unspecified) | 11.2 | 10 | 49.5 | 10.9 | 32.1 | 31.2 | 39 | 49.9 | 8 | 41 | 20.9 | 34.5
CCCCOP(=O)(OCCCC)C(Nc1nc2ccc(OC)cc2s1)c1ccccc1F (stereo unspecified) | -3.7 | 23.6 | 13.2 | 3.5 | -6.6 | 28.8 | 38.2 | 44.2 | -6.2 | 5.3 | 5.4 | 17.4
Cc1cccc2sc(NC(c3ccc(C(F)(F)F)cc3)P(=O)(OC(C)C)OC(C)C)nc12 (stereo unspecified) | 17.3 | -0.7 | 25.9 | 8.6 | 6.3 | 29.5 | 11.2 | 22.7 | -1.3 | 15.3 | 20.5 | 9.1
CCOP(=O)(OCC)C(Nc1nc2c(C)cccc2s1)c1ccccc1F (stereo unspecified) | 17.7 | 35.8 | 41.9 | -6.1 | 3.51 | 35.3 | 42.6 | 58.9 | -13.9 | 22.9 | 23.3 | 9.2
CCCCOP(=O)(OCCCC)C(Nc1nc2c(C)cccc2s1)c1ccc(C(F)(F)F)cc1 (stereo unspecified) | 37.7 | 0.1 | 36 | 21.6 | 5 | 57.4 | 9.2 | 20.3 | -3.2 | 31.6 | 40.8 | 31.5
COc1ccc2nc(NC(c3ccccc3F)P(=O)(OC)OC)sc2c1 (stereo unspecified) | 1.9 | 11.9 | 33.3 | 10.1 | 21.4 | 8.64 | 17.8 | 25.1 | 4.3 | 26.6 | 7.9 | 11.4
COP(=O)(OC)C(Nc1nc2c(C)cccc2s1)c1ccc(C(F)(F)F)cc1 (stereo unspecified) | 22.1 | -13.2 | 8.9 | 19.2 | 4 | 47.3 | -0.8 | 2.5 | 1.8 | 4.6 | 26 | 20.8
CCCOP(=O)(OCCC)C(Nc1nc2c(C)cccc2s1)c1ccccc1F (stereo unspecified) | 15.9 | -18.9 | 43.3 | 4.8 | 21.7 | 31.7 | 0.8 | 21.7 | -0.2 | 29.4 | 27.3 | 4.3
CCOP(=O)(OCC)C(Nc1nc2ccc(OC)cc2s1)c1ccccc1F (stereo unspecified) | 4.5 | 20.5 | 38.9 | 7.9 | 16.8 | 22.1 | 34.5 | 49.4 | 7.5 | 22.5 | 12.3 | 15.7
CCCCOP(=O)(OCCCC)C(Nc1nc2c(C)cccc2s1)c1ccccc1F (stereo unspecified) | 32.1 | 10 | 89.1 | 25.6 | 52.1 | 72.1 | 29 | 38.1 | 11.2 | 86 | 49 | 32.1
CCOP(=O)(OCC)C(Nc1nc2c(C)cccc2s1)c1ccc(C(F)(F)F)cc1 (stereo unspecified) | 0.36 | -5.2 | 49.3 | 1.6 | 12.6 | 16.9 | 9.8 | 16.7 | -10.2 | 13.5 | 2.06 | 14.2
COc1ccc2nc(NC(c3ccccc3F)P(=O)(OC(C)C)OC(C)C)sc2c1 (stereo unspecified) | -7.4 | 39.7 | 18.5 | 1.7 | -8.5 | 16.7 | 43.2 | 50.4 | -4.3 | 2.1 | 7.5 | 2.8
CCCOP(=O)(OCCC)C(Nc1nc2ccc(OC)cc2s1)c1ccccc1F (stereo unspecified) | 35.3 | 21.3 | 28.7 | 13.9 | 5 | 58.1 | 25.1 | 27.1 | 10.3 | 15.8 | 49.2 | 23.8

From ChEMBL document CHEMBL1139665, “Synthesis, X-ray crystallographic analysis, and antitumor activity of N-(benzothiazole-2-yl)-1-(fluorophenyl)-O,O-dialkyl-alpha-aminophosphonates” (2006)
